Assay results reported in USRE42700E1, “Induction of apoptosis in cancer cells” (Sanford-Burnham Medical Research Institute, priority 2001, dated 2011).

Assays:
MDA-MB-468 = assay: apoptosis induction / cell death in breast cancer cells; type: cell-based, human
[1] = test system: human acute megakaryocytic leukemia cell line M07e; assay: M07e apoptosis quantification; type: cell-based
Experimental: (§1) Apoptosis Quantification: Staining of apoptotic cells was performed as described by Gavreli, Y., et al., (J. Cell. Biol. 119: 493-501 (1992)) and Whitacre, C. M., et al., (Cancer Res. 55: 3697-3701 (1995)). After 3-Cl-AHPC treatment, cells were harvested, washed with PBS and resuspended at 1×10^6 cells/ml. Cell suspensions (50 μl) were stained with […] of acridine orange solution ([…]) in PBS in the dark. Cells displaying fragmented DNA were detected using a fluorescent microscope. Apoptotic cells were also detected using a kit. Cells that incorporated fluorescein labeled deoxyuridine triphosphate were detected using flow cytometry.

RARβ = RARβ (Homo sapiens, UniProt P10826); assay: activation of RARβ on the (TREpal)2-tk-CAT reporter construct; type: cell-based; conditions: 1.0 μM
[2] = CFU-GM colony formation, human bone marrow; type: cell-based; conditions: bone marrow CFU-GM progenitor cells
Experimental: (§2) CFU-GM Colony Formation: The CFU-GM colony assay was performed as described in Parchment et al., (J. Natl. Cancer Inst. 86: 273-280 (1994)).

RARα = RARα (Homo sapiens, UniProt P10276); assay: activation of RARα on the (TREpal)2-tk-CAT reporter construct; type: cell-based; conditions: 1.0 μM
[3] = test system: committed marrow stem cells (CFU-GM); assay: CFU-GM colony formation (species not stated); type: cell-based; conditions: concentrations which completely inhibited leukemic colony formation
Experimental: as §2

MCF-7 = assay: apoptosis induction / cell death in breast cancer cells; type: cell-based, human
MDA-MB-231 = assay: as above; type: cell-based, human
[4] = test system: leukemic blasts from patients (AML or CML in blast crisis); assay: apoptosis in primary cultures of patient leukemic blasts; type: cell-based, human
Experimental: Cell Growth: IL-3-transfected M07e cells have been described by Thacker, D. J., et al., Leukemia 8: 871-877 (1994). Cells were grown in RPMI supplemented with 5 percent heat-inactivated fetal bovine serum (FBS) and 25 μg/ml gentamycin in a […], 5% CO2, and 100% humidity environment. Leukemic cells were obtained from patients who met the criteria for the diagnosis of AML or CML in blast crisis (see Table 1). Studies were approved by the Wayne State University Institutional Review Board. Informed consent was obtained from all patients. Leukemic blasts from patients were isolated using Ficoll hypaque. Cells at the interface between plasma and red blood cells were diluted with sterile PBS, then layered over Ficoll hypaque (1.077 density), and the leukemic cells collected at the interface. The sample to be studied represented greater than 90% blasts. The patient leukemia samples were grown in RPMI medium supplemented with 10% FBS, gentamycin (25 μg/ml), IL-3 (20 ng/ml), SCF (25 ng/ml), GM-CSF (20 ng/ml) and G-CSF (20 ng/ml). Cell growth was assessed using a cell proliferation kit.
as §1

Murine AML 1498 cells = assay: murine AML 1498 implanted intravenously in C57BL/6 mice
Text: Tumor Maintenance: Murine AML1498 cells were maintained in the mouse strain of origin (C57BL/6) and transplanted into this same inbred strain chemotherapy trials. Individual mouse body weights for each experiment were within five grams, and all mice were more than 20 grams (mean) at the start of therapy. Mice were supplied food and water ad libitum.
Treatment was started the day after implantation of AML cells.
End Points for Assessing Antitumor Activity: The following quantitative endpoints were used to assess antitumor activity
a) Percent Increase in Lifespan (% ILS): For leukemic mice: • % ILS=(T−C)/C×100; in which C=median day of death of control group and T=median day of death of treated group. Survival was the endpoint; with moribund mice sacrificed. Cause of death was verified by necropsy.
b) Calculation of Tumor Cell Kill: For leukemic survival trials, the log10 cell kill was calculated from the following formula:
[formula] where T is median day of death for treated group and C is median day of death for control group (Corbett, T. H., et al., Invest. New Drugs, 17: 17-27 (1999) and Teicher, B. A., In vivo tumor response end points, In Tumor Models in Cancer Research, B. Teicher, editor, Humana Press Inc./Totowa, N.J., pp. 593-616 (2001)). Td is determined from differences in the median days of death of the titered control groups.

RXRα = RXRα (Homo sapiens, UniProt P19793); assay: activation of RXRα on the (TREpal)2-tk-CAT reporter construct; type: cell-based; conditions: 1.0 μM
[5] = test system: ALL cells obtained from patients; assay: apoptosis of primary ALL cells obtained from patients; type: cell-based, human; conditions: primary cultures
Bcl-XL in leukemic cells = assay: Bcl-XL cleavage by Western blot; type: cell-based, human; conditions: 1 μM
Experimental: (§3) Western Blots: Western blots were performed according to the protocol of Sheikh, M. S., et al., (Oncogene, 9: 3407-3415 (1994)). Logarithmically growing cells were treated with 3-Cl-AHPC for various times and cells were harvested and lysed in Laemmli lysis buffer (0.5 M Tris-HCl, pH 6.8, 0.002M EDTA, 10% glycerol, 10% sodium dodecyl sulfate (SDS), and 5% β-mercaptoethanol). Protein lysates (50 μg/lane) were electrophoresed on 12% SDS-polyacrylamide gels and transferred to nitrocellulose membranes. Membranes were blocked with 5% nonfat dried milk in PBS/0.5% Tween 20 and then incubated with the appropriate antibodies. Horseradish peroxidase-conjugated rabbit anti-mouse IgG was used as the secondary antibody, and bands were developed using the Amersham ECL non-radioactive method.

caspases in M07e cells = assay: caspase activation in M07e cells; type: cell-based, human
Experimental: Activation of caspases-1, -2, -3, -6, -8 and -9 was assessed using a caspase activation kit.

[6] = test system: ERK, p38 and JNK kinases in M07e and patient leukemic cells; assay: activation of MAPK pathways (phospho-p38, phospho-ERK, phospho-JNK Western blots); type: cell-based, human; conditions: 1 μM
Experimental: as §3

[7] = total dose 80 mg/kg, qd 1-5, 5 × 10^6 cells
[8] = total dose 115 mg/kg, qd 1-5, 5 × 10^6 cells
[9] = total dose 140 mg/kg, qd 1-4, 5 × 10^6 cells

Sequence of RARβ (P10826 whole entry, species assumed): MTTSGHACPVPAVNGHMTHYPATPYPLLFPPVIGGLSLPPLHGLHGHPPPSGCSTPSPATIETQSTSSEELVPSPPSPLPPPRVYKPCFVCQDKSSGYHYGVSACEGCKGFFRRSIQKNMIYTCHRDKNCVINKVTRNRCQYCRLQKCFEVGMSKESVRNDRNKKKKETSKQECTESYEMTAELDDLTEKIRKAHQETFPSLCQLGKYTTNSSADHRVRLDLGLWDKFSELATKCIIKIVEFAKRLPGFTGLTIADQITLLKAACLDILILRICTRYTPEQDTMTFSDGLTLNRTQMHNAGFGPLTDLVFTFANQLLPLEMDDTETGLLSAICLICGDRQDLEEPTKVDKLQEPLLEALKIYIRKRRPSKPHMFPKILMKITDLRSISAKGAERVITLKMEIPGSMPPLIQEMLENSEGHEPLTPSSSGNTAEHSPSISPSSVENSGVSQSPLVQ
Sequence of RARα (P10276 whole entry, species assumed): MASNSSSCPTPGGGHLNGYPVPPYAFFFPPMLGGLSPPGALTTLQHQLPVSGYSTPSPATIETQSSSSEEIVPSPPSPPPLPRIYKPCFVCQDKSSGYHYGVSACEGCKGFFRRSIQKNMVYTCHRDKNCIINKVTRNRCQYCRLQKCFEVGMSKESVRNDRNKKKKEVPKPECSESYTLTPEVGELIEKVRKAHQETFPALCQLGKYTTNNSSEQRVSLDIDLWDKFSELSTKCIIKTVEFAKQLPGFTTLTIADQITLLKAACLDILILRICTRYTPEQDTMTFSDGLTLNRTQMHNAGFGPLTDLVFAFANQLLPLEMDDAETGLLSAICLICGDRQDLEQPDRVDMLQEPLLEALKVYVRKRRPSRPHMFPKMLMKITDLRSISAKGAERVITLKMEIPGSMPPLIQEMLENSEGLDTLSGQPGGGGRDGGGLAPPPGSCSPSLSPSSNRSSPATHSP
Sequence of RXRα (P19793 whole entry): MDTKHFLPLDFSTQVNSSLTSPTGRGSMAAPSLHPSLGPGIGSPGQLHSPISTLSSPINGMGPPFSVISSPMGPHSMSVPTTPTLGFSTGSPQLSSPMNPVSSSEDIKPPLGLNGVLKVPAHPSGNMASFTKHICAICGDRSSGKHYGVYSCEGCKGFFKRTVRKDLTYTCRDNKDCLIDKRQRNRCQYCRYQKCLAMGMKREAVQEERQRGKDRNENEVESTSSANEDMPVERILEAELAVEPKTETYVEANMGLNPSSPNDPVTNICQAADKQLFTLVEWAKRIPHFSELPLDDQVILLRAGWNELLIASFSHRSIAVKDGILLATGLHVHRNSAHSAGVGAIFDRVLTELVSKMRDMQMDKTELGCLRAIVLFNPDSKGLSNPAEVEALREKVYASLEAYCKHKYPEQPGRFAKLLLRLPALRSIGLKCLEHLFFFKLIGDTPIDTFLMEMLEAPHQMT

## O=C(O)/C=C/c1ccc(-c2ccc(O)c(C34CC5CC(CC(C5)C3)C4)c2)c(Cl)c1 [Example 3-Cl-AHPC, (E)-4-[3-(1-Adamantyl)-4-hydroxyphenyl]-3-chlorocinnamic acid]
MDA-MB-468
  ED50 (concentration that results in 50% cell death): 710 nM
[1]; 0.2 μM
  apoptosis: no significant increase in apoptosis
[1]; 0.5 and 1.0 μM
  apoptosis: onset of apoptosis
[1]; M07e cells
  concentration required to induce apoptosis: 0.5 µM
RARβ
  activation of RARβ: does not activate
[2]
  IC90: > 15000 nM
RARα
  activation of RARα: does not activate
[3]
  inhibition of CFU-GM colony formation: 30%
MCF-7
  ED50 (concentration that results in 50% cell death): 850 nM
MDA-MB-231
  ED50 (concentration that results in 50% cell death): 650 nM
[4]; 0.5 μM
  apoptosis of leukemic blasts: 60%
[4]; 1 μM, 11 primary cultures
  induction of apoptosis: > 80%
[4]; 0.2 and 0.1 μM
  apoptosis of leukemic blasts: minimal apoptosis
[4]; non-APL AML samples
  proliferation and apoptosis of primary human AML cultures (FIG. 13): inhibited the proliferation and induced apoptosis
[4]; patient leukemic cells
  concentration required to induce apoptosis: 0.5 µM
Murine AML 1498 cells; 140 mg/kg total dose over four days
  animal deaths: no animal deaths
Murine AML 1498 cells; [7]
  Body Wt. Loss: +0.0%
  ILS: 50%
  Log cell kill: 2.6
  Mean Body Wt. Loss: +0.0 g/mouse
  Median Day of Tumor Death (range): 9 (8,9,9,9,10)
Murine AML 1498 cells; [8]
  ILS: 83%
  Log cell kill: 3.3
  Median Day of Tumor Death (range): 11 (10,10,11,11,11)
Murine AML 1498 cells; total dose 115 mg/kg, qd 1-5, 5 × 10^6 cells, negative = loss
  Mean Body Wt. Loss: −1.2 g/mouse
Murine AML 1498 cells; [9]
  ILS: 83%
  Log cell kill: 3.3
  Median Day of Tumor Death (range): 11(10,11,11,11,11)
Murine AML 1498 cells; total dose 140 mg/kg, qd 1-4, 5 × 10^6 cells, negative = loss
  Mean Body Wt. Loss: −3.6 g/mouse
RXRα
  activation of RXRα: does not activate
[5]
  apoptosis of ALL cells obtained from patients: resulted in their apoptosis
Bcl-XL in leukemic cells
  Bcl-XL cleavage: cleavage of Bcl-XL to a 18-kD product
Caspases in M07e cells; 0.5 μM
  increase in activity of caspase-2: approximately 2 fold
  increase in activity of caspase-3: approximately 2 fold
  increase in activity of caspase-6: approximately 2 fold
  increase in activity of caspase-8: approximately 2 fold
Caspases in M07e cells; 1 μM
  increase in activity of caspase-2: approximately 4 fold
  increase in activity of caspase-3: 2.5 fold
  increase in activity of caspase-6: 3 fold
  increase in activity of caspase-8: approximately 4 fold
[6]
  activation of ERK, p38 and JNK kinases: inactivation of ERK, p38 and JNK kinases
